Counter-ions that a name gives are not always drawn. Like-named read-outs stand apart in the source and are kept apart here.
Columns and labels:
[1] = test system: acute HIV infection of T-lymphoid cells; assay: Assay for inhibition of HIV replication (spread assay); assay type: cell-based, HIV-1; conditions: Human immunodeficiency virus 1, T-lymphoid; read-out: Spread - IC95
Experimental: • Assay for Inhibition of HIV Replication
Assays for the inhibition of acute HIV infection of T-lymphoid cells were conducted in accordance with Vacca, J. P. et al., Proc. Natl. Acad. Sci. USA 1994, 91: 4096.

wild-type HIV-1 protease = wild-type HIV-1 protease (Human immunodeficiency virus type 1 group M subtype B, UniProt P04585); assay: Assay for inhibition of microbial expressed HIV protease; assay type: biochemical
How it was run: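 E. coli-expressed protease (5 pM) preincubated with inhibitor 30 min at room temperature in 50 mM sodium acetate pH 5.5, 100 mM NaCl, 0.1% BSA. Substrate Val-Ser-Gln-Asn-(betanapthyl)Ala-Pro-Ile-Val at 440 micromolar, 1 h at 30° C; acid-quenched, product peak area by C18 HPLC gives inhibition.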

[2] = wild-type HIV-1 protease expressed in E. coli, peptide substrate, pH 5.5, read-out: Enzyme Inhibition - IC50

## COC(=O)N[C@H](C(=O)N[C@H](C)CCC[C@@H](CO)N(CCC(C)C)S(=O)(=O)c1ccc(CO)cc1)C(c1ccccc1)c1ccccc1 [Example J5, N-{(1R,5S)-6-hydroxy-5-[{[4-(hydroxymethyl)phenyl]sulfonyl}(3-methylbutyl)amino]-1-methylhexyl}-Nα-(methoxycarbonyl)-β-phenyl-L-phenylalaninamide]
[1]
  IC95: 192 nM
wild-type HIV-1 protease; [2]
  IC50: 0.291 nM

## COC(=O)N[C@H](C(=O)N[C@H](CCC[C@@H](CO)N(CCC(C)C)S(=O)(=O)c1ccc(CO)cc1)C(C)(C)C)C(c1ccccc1)c1ccccc1 [Example J6, N-{(1R,5S)-1-tert-butyl-6-hydroxy-5-[{[4-(hydroxymethyl)phenyl]sulfonyl}(3-methylbutyl)amino]hexyl}-Nα-(methoxycarbonyl)-β-pbenyl-L-phenylalaninamide]
[1]
  IC95: 327 nM
wild-type HIV-1 protease; [2]
  IC50: 0.976 nM

## COC(=O)N[C@H](C(=O)N[C@@H](CCC[C@@H](CO)N(CCC(C)C)S(=O)(=O)c1ccc(CO)cc1)C(F)(F)F)C(c1ccccc1)c1ccccc1 [Example J7, N-[(1S,5S)-6-hydroxy-5-[{[4-(hydroxymethyl)phenyl]sulfonyl}(3-methylbutyl)amino]-1-(trifluoromethyl)hexyl]-Nα-(methoxycarbonyl)-β-phenyl-L-phenylalaninamide]
[1]
  IC95: 359 nM
wild-type HIV-1 protease; [2]
  IC50: 0.623 nM

## COC(=O)N[C@H](C(=O)N[C@H](CCC[C@@H](CO)N(CCC(C)C)S(=O)(=O)c1ccc(CO)cc1)C1CC1)C(c1ccccc1)c1ccccc1 [Example J8, N-{(1R,5S)-1-cyclopropyl-6-hydroxy-5-[{[4-(hydroxymethyl)phenyl]sulfonyl}(3-methylbutyl)amino]hexyl}-Nα-(methoxycarbonyl)-β-phenyl-L-phenylalaninamide]
[1]
  IC95: 10 nM
wild-type HIV-1 protease; [2]
  IC50: 0.015 nM

## COC(=O)N[C@H](C(=O)N[C@H](CCC[C@@H](CO)N(CCC(C)C)S(=O)(=O)c1ccc(CO)cc1)C(C)C)C(c1ccccc1)c1ccccc1 [Example J9, N-{(1R,5S)-6-hydroxy-5-[{[4-(hydroxymethyl)phenyl]sulfonyl}(3-methylbutyl)amino]-1-isopropylhexyl}-Nα-(methoxycarbonyl)-β-phenyl-L-phenylalaninamide]
[1]
  IC95: 23 nM
wild-type HIV-1 protease; [2]
  IC50: 0.069 nM

## C=C[C@@H](CCC[C@@H](CO)N(CCC(C)C)S(=O)(=O)c1ccc(CO)cc1)NC(=O)[C@@H](NC(=O)OC)C(c1ccccc1)c1ccccc1 [Example J10, N-{(1R,5S)-6-hydroxy-5-[{[4-(hydroxymethyl)phenyl]sulfonyl}(3-methylbutyl)amino]-1-vinylhexyl}-Nα-(methoxycarbonyl)-β-phenyl-L-phenylalaninamide]
[1]
  IC95: 4 nM
wild-type HIV-1 protease; [2]
  IC50: 0.005 nM

## C=C[C@H](CCC[C@@H](CO)N(CCC(C)C)S(=O)(=O)c1ccc(CO)cc1)NC(=O)[C@@H](NC(=O)OC)C(c1ccccc1)c1ccccc1 [Example J11, N-{(1S,5S)-6-hydroxy-5-[{[4-(hydroxymethyl)phenyl]sulfonyl}(3-metbylbutyl)amino]-1-vinylhexyl}-Nα-(methoxycarbonyl)-β-phenyl-L-phenylalaninamide]
[1]
  IC95: 107 nM
wild-type HIV-1 protease; [2]
  IC50: 0.185 nM

## COC(=O)N[C@H](C(=O)N[C@H](CCC[C@@H](CO)N(CCC(C)C)S(=O)(=O)c1ccc(CO)cc1)C(F)(F)C(F)(F)F)C(c1ccccc1)c1ccccc1 [Example J12, N-[(1R,5S)-6-hydroxy-5-[{[4-(hydroxymethyl)phenyl]sulfonyl}(3-methylbutyl)amino]-1-(pentafluoroethyl)hexyl]-Nα-(methoxycarbonyl)-β-phenyl-L-phenylalaninamide]
[1]
  IC95: 43 nM
wild-type HIV-1 protease; [2]
  IC50: 0.036 nM

## C#C[C@@H](CCC[C@@H](CO)N(CCC(C)C)S(=O)(=O)c1ccc(CO)cc1)NC(=O)[C@@H](NC(=O)OC)C(c1ccccc1)c1ccccc1 [Example J13, N-{(1R,5S)-1-ethynyl-6-hydroxy-5-[{[4-(hydroxymethyl)phenyl]sulfonyl}(3-methylbutyl)amino]hexyl}-Nα-(methoxycarbonyl)-β-phenyl-L-phenylalaninamide]
[1]
  IC95: 6 nM
wild-type HIV-1 protease; [2]
  IC50: 0.01 nM

## COC(=O)N[C@@H](Cc1ccccc1Cl)C(=O)N[C@H](CCC[C@@H](CO)N(CCC(C)C)S(=O)(=O)c1ccc(CO)cc1)C1CC1 [Example J14, 2-chloro-N-{(1R,5S)-1-cyclopropyl-6-hydroxy-5-[{[4-(hydroxymethyl)phenyl]sulfonyl}(3-methylbutyl)amino]hexyl}-Nα-(methoxycarbonyl)-L-phenylalaninamide]
[1]
  IC95: 63 nM
wild-type HIV-1 protease; [2]
  IC50: 0.183 nM

## COC(=O)N[C@@H](Cc1ccccc1Cl)C(=O)N[C@H](CCC[C@@H](CO)N(CCC(C)C)S(=O)(=O)c1ccc([C@H](C)O)cc1)C1CC1 [Example J15, 2-chloro-N-{(1R,5S)-1-cyclopropyl-6-hydroxy-5-[({4-[(1S)-1-hydroxyethyl]phenyl}sulfonyl)(3-methylbutyl)amino]hexyl}-Nα-(methoxycarbonyl)-L-pbenylalaninamide]
[1]
  IC95: 42 nM
wild-type HIV-1 protease; [2]
  IC50: 0.372 nM

## COC(=O)N[C@H](C(=O)N[C@H](CCC[C@@H](CO)N(CCC(C)C)S(=O)(=O)c1ccc(CO)cc1)C1CC1)C(c1ccc(F)cc1)c1ccc(F)cc1 [Example J16, N-{(1R,55)-1-cyclopropyl-6-hydroxy-5-[{[4-(hydroxymethyl)phenyl]sulfonyl}(3-methylbutyl)amino]hexyl}-4-fluoro-β-(4-fluorophenyl)-Nα-(methoxycarbonyl)-L-phenylalaninamide]
[1]
  IC95: 25 nM
wild-type HIV-1 protease; [2]
  IC50: 0.01 nM

## CC(C)CCN([C@H](CO)CCC[C@@H](NC(=O)[C@@H](N)C(c1ccc(F)cc1)c1ccc(F)cc1)C1CC1)S(=O)(=O)c1ccc(CO)cc1 [Example J17, N-{(1R,5S)-1-cyclopropyl-6-hydroxy-5-[{[4-(hydroxymethyl)phenyl]sulfonyl}(3-methylbutyl)amino]hexyl}-4-fluoro-β-(4-fluorophenyl)-L-phenylalaninamide hydrochloride]
[1]
  IC95: 6 nM
wild-type HIV-1 protease
  IC50: 0.01 nM

## CC(C)CCN([C@H](CO)CCC[C@@H](NC(=O)[C@@H](N)C(c1ccc(F)cc1)c1ccc(F)cc1)C1CC1)S(=O)(=O)c1ccc([C@H](C)O)cc1 [Example J18, N-{(1R,5S)-1-cyclopropyl-6-hydroxy-5-[({4-[(1S)-1-hydroxyethyl]phenyl}sulfonyl)(3-methylbutyl)amino]hexyl}-4-fluoro-β-(4-fluorophenyl)-L-phenylalaninamide hydrochloride]
[1]
  IC95: 8 nM
wild-type HIV-1 protease
  IC50: 0.01 nM

## CC[C@@H](CCC[C@@H](CO)N(CC(C)C)S(=O)(=O)c1ccc(CO)cc1)NC(=O)[C@@H](NC(=O)OC)C(c1ccccc1)c1ccccc1 [Example J19, N-{(1S,5S)-1-ethyl-6-hydroxy-5-[{[4-(hydroxymethyl)phenyl]sulfonyl}(isobutyl)amino]hexyl]-Nα-(methoxycarbonyl)-β-phenyl-L-phenylalaninamide]
[1]
  IC95: 11 nM
wild-type HIV-1 protease; [2]
  IC50: 0.034 nM

## CC[C@@H](CCC[C@@H](CO)N(CC(C)C)S(=O)(=O)c1ccc(CO)cc1)NC(=O)[C@@H](NC(=O)OC)C(c1ccc(F)cc1)c1ccc(F)cc1 [Example J20, N-{(1S,5S)-1-ethyl-6-hydroxy-5-[{[4-(hydroxymethyl)phenyl]sulfonyl}(isobutyl)amino]hexyl}-4-fluoro-β-(4-fluorophenyl)-Nα-(methoxycarbonyl)-L-phenylalaninamide]
[1]
  IC95: 50 nM
wild-type HIV-1 protease; [2]
  IC50: 0.02 nM

## CC[C@@H](CCC[C@@H](CO)N(CC(C)C)S(=O)(=O)c1ccc(CO)cc1)NC(=O)[C@H](Cc1ccccc1Cl)NC(=O)OC [Example J21, 2-chloro-N-{(1S,55)-1-ethyl-6-hydroxy-5-[{[4-(hydroxymethyl)phenyl]sulfonyl}(isobutyl)amino]hexyl}-Nα-(methoxycarbonyl)-L-phenylalaninamide]
[1]
  IC95: 49 nM
wild-type HIV-1 protease; [2]
  IC50: 0.419 nM

## COC(=O)N[C@H](C(=O)N[C@H](CCC[C@@H](CO)N(CC(C)C)S(=O)(=O)c1ccc(CO)cc1)C1CC1)C(c1ccccc1)c1ccccc1 [Example J22]
[1]
  IC95: 15 nM
wild-type HIV-1 protease; [2]
  IC50: 0.032 nM

## COC(=O)N[C@H](C(=O)N[C@H](CCC[C@@H](CO)N(CC(C)C)S(=O)(=O)c1ccc(CO)cc1)C1CC1)C(c1ccc(F)cc1)c1ccc(F)cc1 [Example J23, N-{(1R,5S)-1-cyclopropyl-6-hydroxy-5-[{[4-(hydroxymethyl)phenyl]sulfonyl}(isobutyl)amino]hexyl}-4-fluoro-β-(4-fluorophenyl)-Nα-(methoxycarbonyl)-L-phenylalaninamide]
[1]
  IC95: 60 nM
wild-type HIV-1 protease; [2]
  IC50: 0.025 nM

## CC[C@@H](CCC[C@@H](CO)N(CC(C)C)S(=O)(=O)c1ccc(CO)cc1)NC(=O)[C@@H](NC)C(c1ccccc1)c1ccccc1 [Example J24, N-{(1S,5S)-1-ethyl-6-hydroxy-5-[{[4-(hydroxymethyl)phenyl]sulfonyl}(isobutyl)amino]hexyl}-Nα-methyl-β-phenyl-L-phenylalaninamide hydrochloride]
[1]
  IC95: 16 nM
wild-type HIV-1 protease
  IC50: 0.055 nM

## CN[C@H](C(=O)N[C@H](CCC[C@@H](CO)N(CC(C)C)S(=O)(=O)c1ccc(CO)cc1)C1CC1)C(c1ccccc1)c1ccccc1 [Example J25, N-{(1R,55)-1-cyclopropyl-6-hydroxy-5-[{[4-(hydroxymethyl)phenyl]sulfonyl}(isobutyl)amino]hexyl}-Nα-methyl-β-phenyl-L-phenylalaninamide]
[1]
  IC95: 17 nM
wild-type HIV-1 protease; [2]
  IC50: 0.08 nM

## COC(=O)N[C@@H](Cc1ccccc1Cl)C(=O)N[C@H](CCC[C@@H](CO)N(CCC(C)C)S(=O)(=O)c1ccc(CO)cc1)C(C)C [Example J26, 2-chloro-N-{(1R,5S)-6-hydroxy-5-[{[4-(hydroxymethyl)phenyl]sulfonyl}(3-methylbutyl)amino]-1-isopropylhexyl}-Nα-(methoxycarbonyl)-L-phenylalaninamide]
[1]
  IC95: 110 nM
wild-type HIV-1 protease; [2]
  IC50: 1.33 nM
